Measured values from patent publication US10513559B2, “Amatoxin-armed therapeutic cell surface binding components designed for tumour therapy” (Deutsches Krebsforschungszentrum, priority 2009, dated 2019).
pIC50: −log10 of the molar value.

What was measured:
MCF-7 cells = experiment: proliferation assay, [3H]-thymidine incorporation, MCF-7; assay type: cell-based, human; details: 72 or 96 h, amanitin concentration, read-out: IC50 of inhibition of cell proliferation
Protocol: Inhibition of cell growth by amanitin-IgG conjugates was determined by incorporation of [^3H]-thymidine. Serial dilutions of amanitin-huHEA125 and amanitin in complete medium (RPMI 1640 supplemented with 10% heat-inactivated FCS, 2 mM L-glutamine and 1 mM sodium pyruvate) ranging from 2×10^−5 M to 6×10^−13 M were prepared in triplicates in a volume of 100 μl in the wells of a 96 well flat-bottom tissue culture microtiter plate. […] Plates were incubated in a humidified atmosphere at 37° C. and 5% CO2 for 72 or 96 h. At 20 h before the end of the assay, 1 μCi of [^3H]-thymidine was added. Subsequently, plates were processed with a Tomtec cell harvester and the incorporated radioactivity was determined by liquid scintillation counting (Wallac Betaplate Liquid Scintillation Counter, PerkinElmer Life and Analytical Sciences) and given as cpm.
Three examples of growth inhibition induced by different amanitin-IgG conjugates are depicted in FIGS. 5, 6, and 9. In all three experiments MCF-7 cells were used. […] In the experiment outlined in FIG. 6 huHEA125-Amanitin4 was compared with an alpha-phalloidin huHEA125 conjugate and with free Amanitin.

[1] = system: MCF-7 breast cancer cells; experiment: binding of conjugates to MCF-7 cells by flow cytometry; parameters: species or system human; details: 1 μg/ml, 1 h on ice; FITC-labeled secondary antibody; identical antibody amounts
Protocol: The abbreviation FL1-H stands for “fluorescence 1 height” which means the intensity of fluorescence 1, i.e. the green channel for FITC.
Binding of huHEA125-amanitin and huHEA125-phalloidin conjugates versus non-conjugated huHEA125 antibody was analyzed by flow cytometry. MCF-7 target cells were washed twice in FACS buffer (Dulbecco's PBS with 1% heat-inactivated fetal calf serum and 0.1% sodium azide) counted and adjusted to 2×10^7 cells per ml. Fifty μl of cell suspension was given to each well of a 96 well U-bottom microtiter plate. Immunotoxins huHEA125-amanitin1, huHEA125-amanitin4 and huHEA125-phalloidin as well as unconjugated huHEA125 antibody were added at a concentration of 1 μg/ml in a volume of 100 μl per well and incubated for 1 h on ice. The plate was centrifuged (2 min at 2000 rpm) and the supernatant was removed from the cells. Cells were re-suspended in 150 μl of FACS buffer and centrifuged again. Subsequently, 100 μl of FITC-labeled F(ab′)2 goat anti-human IgG (H+L) secondary antibody was added per well and incubated again for 1 h on ice. After two washing steps by centrifugation, cells were taken up in 100 μl/well of propidium iodide solution (1 μg/ml in FACS buffer) allowing discrimination of dead cells. Analysis was performed on a FACScan cytometer (Becton and Dickinson, Heidelberg, Germany) using CellQuest software.

Substance	pIC50 (MCF-7 cells)	mean fluorescence intensity (MFI) [1]
Amanitin [reference compound]	~7.00	
huHEA125: chimeric anti-EpCAM antibody: mouse HEA125 variable domains, human kappa light and IgG1 heavy constant chains (SEQ ID NO: 1/2, 11)		1094
α-Amanitin-glutarate-huHEA125 [huHEA125-Amanitin3]	~11.70	
